Measured values taken from the SangsterLogP compilation.

Assay: method code SF-AS, from DOI: 10.1002/jps.2600820804

Row | SMILES | logP
1 | COC(=O)c1ccc(Br)cc1 | 2.95
2 | Oc1c(Br)cccc1Br | 3.36
3 | O=C(O)c1c(F)cccc1Cl | 2.11
4 | COC(=O)c1ccc(C)cc1 | 2.7
5 | COC(=O)c1cccc(Cl)c1 | 2.85
6 | CCc1cccc(OC(C)=O)c1 | 2.45
7 | COC(=O)c1cccc([N+](=O)[O-])c1 | 1.89
8 | COC(=O)c1c(Cl)cccc1Cl | 2.79
9 | CCc1cccc(CC)c1OC(C)=O | 3.4
10 | Oc1c(F)cccc1F | 1.96
11 | COC(=O)c1ccccc1[N+](=O)[O-] | 1.66
12 | COC(=O)c1ccccc1OC | 2.04
13 | COC(=O)c1c(Cl)cccc1[N+](=O)[O-] | 2.21
14 | Cc1cccc(Cl)c1C(=O)O | 2.31
15 | CC(=O)Oc1c(Cl)cccc1Cl | 2.94
16 | Cc1cccc(Cl)c1O | 2.8
17 | COC(=O)c1cccc(C)c1 | 2.77
18 | CCc1cccc(CC)c1O | 3.03

Row | SMILES | logP
19 | COC(=O)c1c(C)cccc1C | 2.55
20 | CCOc1cccc(OC(C)=O)c1 | 2.08
21 | COC(=O)c1ccc(F)cc1 | 2.28
22 | COC(=O)c1c(F)cccc1F | 1.96
23 | Cc1cccc(C)c1C(=O)O | 2.21
24 | COC(=O)c1ccc([N+](=O)[O-])cc1 | 1.94
25 | COC(=O)c1ccccc1F | 1.82
26 | O=C(O)c1c(Cl)cccc1[N+](=O)[O-] | 1.56
27 | COC(=O)c1c(F)cccc1Cl | 2.42
28 | NC(=O)c1ccccc1[N+](=O)[O-] | -0.12
29 | O=C(O)c1c(F)cccc1F | 1.59
30 | O=C(O)c1c(Br)cccc1Br | 3.58
31 | COc1cccc(OC(C)=O)c1 | 1.61
32 | N#Cc1ccccc1C(N)=O | 0
33 | CC(=O)Oc1c(C)cccc1C | 2.32
34 | COC(=O)c1ccccc1I | 2.74
35 | CSc1ccccc1C(N)=O | 0.71
